Measured values published in paper PMC12575728, “Galactose-modified small molecule modulator targets RORα to enhance circadian rhythm and alleviate periodontitis-associated alveolar bone loss” (Bone Research, 2025).
Like-named read-outs stand apart in the source and are kept apart here.

Key:
[1] = Body weight changes in mice after IP administration; assay type: in vivo; conditions: 10 and 50 mg/kg, 7 days
Experimental: After U2OS cells were treated with various concentrations (0 ~ 50 μM) of SR1078,
Body weight changes (%) in […]

[2] = system: BMAL1; assay: BMAL1 immunofluorescence in synchronized U2OS cells; assay type: cell-based, human; conditions: 5 µmol/L
Experimental: U2OS cells were seeded on coverslips and treated with drugs for 24 h. After treatment, the cells were washed 3 times with PBS and fixed with 4% paraformaldehyde at room temperature for 15 min. The cells were then permeabilized with 0.1% Triton X-100 (diluted in PBS) and blocked with 5% BSA (diluted in PBS) at room temperature for 30 min. Primary antibodies were incubated overnight at 4 °C. The next day, the cells were washed 3 times with PBST and incubated with Cy3-conjugated Affinipure Goat Anti-Rabbit IgG(H + L) secondary antibody (1:200) at room temperature for one hour, with DAPI added to stain the nuclei. After washing 3 times with PBST, images were captured using a laser confocal microscope (Nikon A1-Si).

[3] = system: human U2OS cells; assay: CCK-8 assay and live-dead staining; assay type: cell-based; conditions: 1-100 μmol/L, 24, 48, 72 h, pronounced above 10 μmol/L
Experimental: U2OS cells were seeded at a density of 10 000 cells per well in a 96-well plate, with 100 μL of culture medium added to each well. The cells were incubated at 37 °C in a 5% CO2 atmosphere for 24 h or until they reached the logarithmic growth phase. Following this, the cells were treated with SR1078, Gala-SR, Malt-SR, and Mann-SR and incubated for 24, 48, and 72 h. 10 μL of CCK-8 reagent was added to each well, and the plate was returned to the incubator for an additional 1–4 h. Absorbance at 450 nm was then measured using a microplate reader. The average absorbance for each well was calculated, and relative cell viability was determined by comparing the absorbance values to those of the control group.
332 Figure S25. After U2OS cells were treated with various concentrations (0 ~ 50 μM) of SR1078,
333 Gala-SR, Malt-SR, and Mann-SR for 24 hours, live and dead cells were labeled using the
334 Calcein-AM/PI double-staining method. Scale bar: 50 μm.
Body weight changes (%) in
338 C57BL/6J mice (n = 4) after 7 days of administration of Gala-SR, SR1078, or DMSO at doses of 10
339 mg/kg and 50 mg/kg via IP were measured. […]

[4] = Pharmacokinetic studies in mice (IP and IV); assay type: in vivo; conditions: for AUC / Cmax / Tmax / half-life / concentration at 8 h / bioavailability / MRT inf: male, C57BL/6 J, mouse, plasma; for concentration at 8 h: read-out: mean plasma concentration 8 h after injection; for bioavailability: intraperitoneal, IP versus IV
[5] = system: RORα/γ; assay: PCR of RORα/γ downstream target genes G6Pase and FGF21 in HepG2 cells; assay type: cell-based
Experimental: Cells were seeded into 6-well plates, treated with the drug for 24 h, and total RNA samples were extracted using TRIzol reagent (Vazyme, China). The extraction of total RNA was performed according to the following steps: After removal of the supernatant, the cells were thoroughly washed three times with phosphate-buffered saline (PBS). Subsequently, the cells were lysed by the application of 1 mL TRIzol reagent. The resulting samples were harvested into frozen 2 mL Eppendorf microcentrifuge tubes and incubated at room temperature for 5 min. A volume of 0.2 mL of chloroform was added to the microcentrifuge tubes to ensure homogenization of the samples, which were then vortexed and incubated at room temperature for another 10 min. The samples were then centrifuged at a speed of 12 000 × g in a microcentrifuge at 4 °C for 15 min. The upper aqueous phase was subsequently collected and transferred to a new 2 mL microcentrifuge tube and mixed with an equal volume of isopropanol. The mixture was then centrifuged at a speed of 12 000 × g in a table microcentrifuge at 4 °C for 10 min. The resulting precipitates were washed once with 1 mL of 75% ethanol and once with 100% ethanol, followed by centrifugation at a speed of 7 500 × g in a table microcentrifuge for 5 min. Finally, the pellet was dissolved in RNase-free DEPC-treated water.
(§1) RNA from liver, periodontal tissues and cell samples was prepared as previously described. Total RNA (1 ug) was synthesized into cDNA using […] (Vazyme). mRNA expression levels were normalized to GAPDH. Relative expression levels and enrichment contents were calculated using the comparative Ct Method. Primer information is detailed in Data file S1.

[6] = biological target: T1, RORα (Homo sapiens, UniProt P35398); assay: Luciferase reporter assay (G6Pase or FGF21 promoter) in HEK293T cells cotransfected with RORα; assay type: cell-based; conditions: HEK293T, RORα; for luminescence of G6Pase and FGF21 luciferase reporters: vs DMSO
T1 construct: HEK293T cells co-transfected with a full-length RORα gene and a luciferase reporter gene; expressed in transfected cells; host or cells: HEK293T
T1 sequence (P35398 1-523): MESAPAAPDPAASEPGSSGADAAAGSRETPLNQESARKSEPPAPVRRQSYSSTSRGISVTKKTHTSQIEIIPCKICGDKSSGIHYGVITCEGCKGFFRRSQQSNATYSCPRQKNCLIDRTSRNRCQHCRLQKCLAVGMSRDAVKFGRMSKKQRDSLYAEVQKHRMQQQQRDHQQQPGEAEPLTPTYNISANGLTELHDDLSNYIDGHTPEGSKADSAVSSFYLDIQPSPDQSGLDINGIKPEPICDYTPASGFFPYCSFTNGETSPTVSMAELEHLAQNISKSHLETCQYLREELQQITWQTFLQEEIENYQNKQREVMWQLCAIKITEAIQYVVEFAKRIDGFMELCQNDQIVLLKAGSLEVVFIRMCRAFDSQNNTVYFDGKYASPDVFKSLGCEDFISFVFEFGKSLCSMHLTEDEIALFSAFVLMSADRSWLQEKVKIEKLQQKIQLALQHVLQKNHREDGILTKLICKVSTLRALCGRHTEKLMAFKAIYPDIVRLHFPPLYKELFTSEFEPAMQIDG
Experimental: HEK293T cells were transfected with Lipofectamine 8000 (ThermoFisher) strictly following the manufacturer’s instructions. Cotransfected HEK293T cells with RORα or RORγ plasmid and a reporter consisting of the G6Pase or FGF21 promoters upstream of a luciferase reporter gene. 500 ng plasmid DNA was transfected into each well of 24 well-plate 24 h after the transfection, DMSO or Gala-SR and SR1078 (5 µmol/L) was added and incubated for 24 h. The Lumicycle instrument detects luminescence and records the numerical value.

[7] = biological target: T1, RORα; assay: G6Pase and FGF21 mRNA in HEK293T cells after RORα knockdown by siRNA; assay type: cell-based; conditions: 5 μmol/L, 24 h
Experimental: as §1

[8] = ip, 10 mg/kg, 10 mg/kg IP, read-out: MRTInf_obs (mean retention time)
[9] = iv, 10 mg/kg, 10 mg/kg IV, read-out: MRTInf_obs

Q: For `O=C(Nc1ccc(C(OCO[C@@H]2O[C@H](CO)[C@H](O)[C@H](O)[C@H]2O)(C(F)(F)F)C(F)(F)F)cc1)c1ccc(C(F)(F)F)cc1` [Gala-SR], which “systemic toxicity (body weight changes)” value [1] is on record?
A: reduced systematic toxicity

Q: And the “expression of BMAL1 (immunofluorescence)” value [2]?
A: enhance the expression of BMAL1

Q: What about the “cytotoxicity / cell compatibility” value [3] of the same compound?
A: superior among all the evaluated groups

Q: And the AUC/D ([4]; 10 mg/kg IP)?
A: 607.73 kg·ng·h/mL/mg

Q: And the AUC/D ([4]; 10 mg/kg IV)?
A: 817.62 kg·ng·h/mL/mg

Q: What about the AUC ([4]; 10 mg/kg IP) of the same compound?
A: 6080 ng·h/mL

Q: What about the Cmax ([4]; 10 mg/kg IP) of the same compound?
A: 1310 ng/mL

Q: What about the Tmax ([4]; 10 mg/kg IP) of the same compound?
A: 30 min

Q: And the half-life ([4]; 10 mg/kg IP)?
A: 206 min

Q: And the concentration at 8 h ([4]; 10 mg/kg IP)?
A: 202 ng/mL

Q: What about the AUC ([4]; 10 mg/kg IV) of the same compound?
A: 8180 ng·h/mL

Q: What about the Cmax ([4]; 10 mg/kg IV) of the same compound?
A: 4990 ng/mL

Q: What about the Tmax ([4]; 10 mg/kg IV) of the same compound?
A: 30 min

Q: What about the half-life ([4]; 10 mg/kg IV) of the same compound?
A: 149 min

Q: And the bioavailability ([4]; 10 mg/kg)?
A: ~74.3%

Q: And the MRT inf [4, 8]?
A: 270 min

Q: What about the MRT inf [4, 9] of the same compound?
A: 178 min

Q: And the “G6Pase and FGF21 expression, with galactosidase inhibitor” value ([5]; HepG2, 5 μmol/L Gala-SR + β-galactosidase inhibitor, vs pure Gala-SR)?
A: downregulated

Q: What about the “G6Pase and FGF21 expression, with galactosidase” value ([5]; HepG2, 5 μmol/L Gala-SR + β-galactosidase, vs pure Gala-SR) of the same compound?
A: significantly upregulated

Q: What about the “G6Pase and FGF21 mRNA expression” value ([5]; HepG2 cells, 5 μmol/L, 24 h, compared to SR1078) of the same compound?
A: significant upregulation

Q: What about the “expression of G6Pase and FGF21 luciferase reporter genes compared to SR1078” value ([6]; 5 μmol/L) of the same compound?
A: substantially elevated expression

Q: What about the “activation of luciferase reporters, with galactosidase inhibitor” value ([6]; 5 μmol/L Gala-SR + β-galactosidase inhibitor, vs Gala-SR alone) of the same compound?
A: significantly decreased compared to the original level

Q: What about the “expression of G6Pase and FGF21 luciferase reporter genes, combined with galactosidase” value ([6]; 5 μmol/L Gala-SR + β-galactosidase, vs Gala-SR alone) of the same compound?
A: significantly enhanced expression

Q: And the “luminescence of G6Pase and FGF21 luciferase reporters” value ([6]; 5 μmol/L)?
A: marked augmentation in the luminescence

Q: What about the “activation of G6Pase and FGF21 transcription after RORα knockdown” value [7] of the same compound?
A: markedly hampered the activation

Q: With `O=C(Nc1ccc(C(O)(C(F)(F)F)C(F)(F)F)cc1)c1ccc(C(F)(F)F)cc1` [SR1078, reference compound] as the compound, how does the “systemic toxicity (body weight changes)” value [1] read?
A: dose-dependent toxicity

Q: What about the “expression of BMAL1 (immunofluorescence)” value [2] of the same compound?
A: enhance the expression of BMAL1

Q: What about the AUC/D ([4]; 10 mg/kg IP) of the same compound?
A: 190.962 kg·ng·h/mL/mg

Q: And the “MRTInf_obs (mean retention time)” value ([4]; 10 mg/kg IP, 10 mg/kg)?
A: 71.64 min

Q: And the AUC/D ([4]; 10 mg/kg IV)?
A: 254.24 kg·ng·h/mL/mg

Q: What about the AUC ([4]; 10 mg/kg IP) of the same compound?
A: 1910 ng·h/mL

Q: What about the Cmax ([4]; 10 mg/kg IP) of the same compound?
A: 1810 ng/mL

Q: What about the Tmax ([4]; 10 mg/kg IP) of the same compound?
A: 30 min

Q: And the half-life ([4]; 10 mg/kg IP)?
A: 58.2 min

Q: And the concentration at 8 h ([4]; 10 mg/kg IP)?
A: 2.96 ng/mL

Q: What about the AUC ([4]; 10 mg/kg IV) of the same compound?
A: 2540 ng·h/mL

Q: What about the Cmax ([4]; 10 mg/kg IV) of the same compound?
A: 7130 ng/mL

Q: And the Tmax ([4]; 10 mg/kg IV)?
A: 30 min

Q: And the half-life ([4]; 10 mg/kg IV)?
A: 58.8 min

Q: What about the bioavailability ([4]; 10 mg/kg) of the same compound?
A: ~75.1%

Q: What about the MRT inf [4, 8] of the same compound?
A: 71.4 min

Q: What about the MRT inf [4, 9] of the same compound?
A: 29.2 min

Q: And the “luminescence of G6Pase and FGF21 luciferase reporters” value ([6]; 5 μmol/L)?
A: marked augmentation in the luminescence

Q: And the “activation of G6Pase and FGF21 transcription after RORα knockdown” value [7]?
A: markedly hampered the activation
